According to the METLIN SMRT retention time set (Domingo-Almenara et al. 2019):

Test: gradient 5% acetonitrile 3 min, to 50% in 2 min, to 85% in 15 min, held 3 min, 100 µL/min
Settings: column: Zorbax Extend-C18 2.1 x 50 mm; eluents: water / acetonitrile, 0.1% formic acid
Summary of the method: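 Using water and acetonitrile that each contained 0.1% formic acid, mixtures of ~100 pure standards were separated at 100 μL/min on a Zorbax Extend-C18 column (2.1 × 50 mm, 1.8 μm). The HPLC fed a quadrupole time-of-flight mass spectrometer working in positive and negative ionization mode, with dead and dwell volumes of 40 μL and 900 μL. Data were acquired over 3 months. Retention time was read from computationally picked adduct peaks after manual inspection of each.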

| RP-LC retention time [s] | SMILES |
| --- | --- |
| 890 | COC(=O)c1ccc(NC(=O)N2CCCC2c2cc(C(C)C)on2)cc1 (configuration not stated) |
| 695 | CC1(C)CC(=O)c2cn(-c3ccc(F)cc3)c(=O)c(C(=O)N3CCOCC3)c2C1 |
| 685 | CC(=O)c1ccc(NC(=O)C2CC(=O)N(c3ccc4oc(C)nc4c3)C2)cc1 (configuration not stated) |
| 1260 | CCCCn1c(=O)c2ccccc2n(Cc2nc(-c3ccc(C(F)(F)F)cc3)no2)c1=O |
| 1030 | Cc1cccc(-c2noc(Cn3c(=O)n(-c4ccccc4F)c(=O)c4sccc43)n2)c1 |
| 675 | COc1ccccc1OCC(=O)NCC1CCOCC1 |
| 1240 | CCCOc1nc2ccccc2nc1N1CCCC(C(=O)NCc2ccccc2C)C1 (configuration not stated) |
| 779 | CSc1ccc(-c2nc3ccccn3c2Nc2ccc(Cl)cc2)cc1 |
| 829 | COc1cccc(CCC(=O)Nc2cnn(-c3ncc(N4CCCC4)cn3)c2)c1 |
| 753 | COC(=O)C1CCC(=O)N1C(c1ccc(OC)cc1)c1cc(OC)c(OC)c(OC)c1 (configuration not stated) |
| 569 | O=C(Nc1ccccc1)N1CC(n2ccnc2)C1 |
| 928 | Cc1ccc(NC(=O)c2cn(C)nc2S(=O)(=O)N2CCSCC2)cc1 |
| 561 | O=C1CCN(Cc2ccc(F)cc2F)CCOCCN1 |
| 782 | O=C(C1=CN(c2cccc(Cl)c2)c2ccccc2S1(=O)=O)N1CCOCC1 |
| 573 | CN(C)C[C@@H]1CN(S(C)(=O)=O)C[C@H]1NC(=O)c1cccn1C |
| 693 | O=C(CCc1c(-c2ccc(F)cc2)nc2ccccn12)N1CCN(c2ccccc2)CC1 |
| 1160 | Cc1cc(F)ccc1NS(=O)(=O)c1cc(-c2cc(C(F)(F)F)on2)sc1C |
| 1110 | Cc1cccc(NC(=O)Nc2nccn(-c3cccc(Cl)c3C)c2=O)c1 |
| 822 | CCc1nc(-c2cn(Cc3ccc(F)cc3)nn2)no1 |

| RP-LC retention time [s] | SMILES |
| --- | --- |
| 980 | Fc1ccc(Nc2c(-c3ccc(Br)cc3)nc3cnccn23)cc1 |
| 789 | CCOc1ccc(S(=O)(=O)N2CCC(C(=O)NCCCOC)CC2)cc1C |
| 841 | CC(=O)Nc1ccc(-c2noc(C3CCN(C(=O)c4ccc(Br)cc4)CC3)n2)cc1 |
| 745 | CCc1ccc(C2=C(C)C(N3CCCN(C(C)=O)CC3)=NS2(=O)=O)cc1 |
| 895 | C/C(=N\Nc1nc2ccccc2s1)c1ccncn1 |
| 849 | Cc1cc(-c2nnc(-c3ccco3)o2)c(C)n1CC(=O)NCc1ccc(F)cc1 |
| 596 | CN1CCN(C(=O)C2CCN(S(=O)(=O)c3ccc4c(c3)sc(=O)n4C)CC2)CC1 |
| 1000 | CCCn1cc(CCNS(=O)(=O)c2ccc(Cl)c(Cl)c2)c2cccnc21 |
| 567 | Cc1ccc(-n2nc3c(N4CCCC(C(=O)NCCN5CCN(C)CC5)C4)nnc(C)c3c2C)cc1 (configuration not stated) |
| 897 | Cc1ccc(CCNC(=O)C2CCCN(c3ncnc4c3nc3n4CCCCC3)C2)cc1 (configuration not stated) |
| 1140 | O=C(O)c1cc2ccccc2cc1Nc1ccccc1 |
| 586 | CN(C)c1ccc2c(c1)CN(C(=O)c1ccsc1)CCO2 |
| 972 | COC(=O)c1cccc(NC(=O)N2CCC(c3nc(C(=O)N(C)C)c(C)o3)CC2)c1 |
| 690 | CCOC(=O)c1nc(NCCCN2CCC(Cc3ccccc3)CC2)c2ccccc2n1 |
| 817 | O=C(c1csc(S(=O)(=O)N2CCC(C(=O)N3CCc4ccccc4C3)CC2)c1)N1CCCC1 |
| 749 | CC(C)n1cnc(S(=O)(=O)N2CCC(C(=O)NCc3ccc(Cl)cc3)CC2)c1 |
| 630 | COc1cc(OC)c(NC(=O)N2CCC(CN3CCCC(C)C3)CC2)cc1Cl (configuration not stated) |
| 653 | COC(=O)CNC(=O)N1CCC(N2C(=O)C3(CCCC3)C2c2scnc2C)CC1 (configuration not stated) |
